# Patent publication US4518789A, “Phenyl alpha-acyloxyacetamide derivatives and their therapeutic use” (priority 1983, dated 1985)
# Experiments:
# [1] = system: scratching or licking induced by pruritic agent; assay: Screening for anti-pruritic effect, topical application, hairless mouse challenged with pruritic agent; type: in vivo; details: 5% solution topical, 30 minutes observation
# Description: Either the mouse or the rat may be used as a screening model for anti-pruritic compounds. Before testing hair is plucked from the test site of skin in haired animals. Therefore hairless strains of mouse or the strain of rat known as fuzzy rat is preferred as a screening model for the present purpose.
# A test composition containing 5% phenyl-alpha-acyloxyacetamide derivative in solution was topically applied to the left dorsal skin of a hairless mouse and a control vehicle solution was topically applied to the right dorsal skin of the same mouse. The same topical applications were repeated three times at 30 minute intervals. A challenging composition containing a pruritic agent, i.e. itch provoking substance, was then topically applied in a volume of 0.05 ml on both left and right dorsal skin of the same mouse. For the next 30 minutes the mouse was carefully observed for signs and symptoms of scratching or licking at the skin sites where the challenging pruritic composition had been topically applied.
# If the mouse scratched or licked indiscriminately at both left and right sides, the test composition was determined to have no anti-pruritic property. […] To confirm the anti-pruritic effect of the test composition, the test solution was later topically applied to the right instead of the left dorsal skin of the same mouse. […]
# [2] = system: scratching or licking induced by pruritic agent; assay: Screening for anti-pruritic effect, systemic (subcutaneous) administration, hairless mouse challenged with pruritic agent; type: in vivo; details: 5% solution 0.1 ml subcutaneous, twice
# Description: Either the mouse or the rat may be used as a screening model for anti-pruritic compounds. Again, the hairless mouse or the fuzzy rat is a preferred strain in each species.
# A test composition in a volume of 0.1 ml containing 5% phenyl-alpha-acyloxyacetamide derivative in solution was injected subcutaneously to the hairless mouse. The same procedure was repeated once more 3 hours later. Two hours after the second injection the mouse was challenged with a pruritic composition either applied topically or administered subcutaneously. When the challenging composition containing a pruritic agent was given topically the solution in a volume of 0.05 ml was applied to the left dorsal skin. A control vehicle solution containing no pruritic agent in the same volume of 0.05 ml was topically applied on the right dorsal skin. For the next 30 minutes the mouse was carefully observed for signs and symptoms of scratching or licking at the skin sites where the pruritic composition and the control vehicle solution had been topically applied.
# If the mouse scratched or licked only the left side of the skin where the pruritic composition had been topically applied the test composition which was injected subcutaneously at two and five hours earlier was determined to have no anti-pruritic property. […]
# [3] = system: Eczemas, and Other Pruritic Disorders; assay: Topical anti-pruritic effect in patients with pruritic disorders; type: in vivo, human; details: first category compounds, 2 to 5%
# Description: Patients with various kinds of pruritic disorders participated in this study. The cases included atopic eczema, patchy eczema, chronic eczema of the hands, lichen simplex chronicus, contact allergic eczema, pruritus of the aged, pruritus of hepatic origin, pruritus ani, pruritus vulvae, scalp pruritus and pruritus of other disorders such as mycosis fungoides, psoriasis and pityriasis rubra pilaris.
# Therapeutic compositions containing phenyl-alpha-acyloxyacetamides at 2 to 5% concentrations in cream, ointment, lotion or solution were prepared according to the Examples. The medicinal compositions were topically applied by the patient in an amount sufficient to cover the itching area of skin. Applications were made one to two times daily or as frequently as necessary and without occlusive dressings.
# Two parameters have been used to compare degrees of anti-pruritic effect of phenyl-alpha-acyloxyacetamides. The first parameter is whether the relief of itching is complete (2+) or incomplete (1+). The second parameter is the number of hours the patient stays free of pruritus after the initial anti-pruritic effect. […] Therefore, the overall anti-pruritic effect of a compound may range from 2+ to 4+. […] 4+ for complete relief and lasting for more than 8 hours.
# pruritus ani = assay: Topical treatment of pruritus ani; type: in vivo, human; details: 1 to 5 percent, regular basis
# Description: It has already been established through tests in animals and humans that phenyl alpha-acyloxyacetamide derivatives are therapeutically effective for topical or systemic treatment of various dermatologic and other conditions.
SMILES,Anti-pruritic Effect [1],Anti-pruritic Effect [2],Anti-pruritic Effect [3],relief from itching and scratching (pruritus ani)
CCNC(=O)C(OC(C)=O)c1ccccc1 (stereo not drawn) [N-ethyl phenyl-alpha-acetoxyacetamide],substantial anti-pruritic effect,substantial anti-pruritic effect,4+ (complete relief and lasting for more than 8 hours),complete relief from itching and scratching
CC(=O)OC(C(=O)NCCc1ccccc1)c1ccccc1 (stereo not drawn) [N-phenethyl phenyl-alpha-acetoxyacetamide],substantial anti-pruritic effect,substantial anti-pruritic effect,4+ (complete relief and lasting for more than 8 hours),complete relief from itching and scratching
